This is an account of results in patent publication US7244753B2, “Cyclooxygenase-2 selective inhibitors, compositions and methods of use” (NitroMed, Inc., priority 2002, dated 2007).

For one data set, the target named is T1, Human COX-1 (Homo sapiens, UniProt P23219).
T1 construct: Human blood (≈50 mL) from male or female donors who had not received any aspirin or NSAIDs for 14 days was collected; endogenous in cells; host or cells: human whole blood from donors, heparinised, stimulated with calcium ionophore A23187
As to the kind of experiment: COX-1 enzyme activity in human whole blood (A23187-stimulated, thromboxane B2 EIA). The format is cell-based. As to conditions: 100 μM test compound. The procedure:
(§1) The assay for COX-1 and COX-2 enzyme activity, in the human whole blood was performed as described in Brideau et al., Inflamm Res., 45: 68-74 (1996)). Human blood (≈50 mL) from male or female donors who had not received any aspirin or NSAIDs for 14 days was collected at two local area blood donor centers and placed in polypropylene syringes containing sodium heparin (20 units per mL blood, final concentration). The blood was transported to the laboratory on ice packs and used within 1.5 hours of collection. Upon receipt in the laboratory, the blood was allowed to come to room temperature for 15 minutes prior to distribution in 1 mL aliquots per well of 24 well tissue culture plates. The plates were then placed on a gently rotating platform shaker in a 5% CO2 incubator at 37° C. for 15 minutes. Test compounds were dissolved in DMSO, at 1000 fold the final desired concentration, and further diluted, as indicated, in DMSO. One μL of each dilution of the test compound was added per well, in duplicate wells; wells not receiving test compound (e.g., basal, background or control wells) received 1 μL DMSO.
(§2) To induce COX-2, lipopolysaccharide (LPS) from E. coli (LPS, serotype 026:B6 or serotype 0127:B8, Sigma Chemical Co., St. Louis, Mo., Catalogue No. L3755 or L3129, respectively) was added at 10 μg/mL (2 μL of 5 mg/mL LPS in DMSO) to appropriate wells 15 minutes after the addition of the test compound. (Basal or background wells not incubated with LPS received 2 μL of DMSO.) For the stimulation of COX-1, the calcium ionophore, A23187 (free acid from Sigma Chemical Co., St. Louis, Mo., Catalogue No. C7522) was added at 25 μM (1 μL of 25 mM stock in DMSO) to separate wells 4.5 hours after the addition of the test compound. (Again, basal, background or control wells not stimulated with A23187 received 1 μL of DMSO.) At 5 hours after the addition of the test compound, all incubations were terminated by placement on ice and the addition of 2 mM EGTA (100 μL of 20 mM EGTA, tetrasodium, in PBS (phosphate buffered saline) without Ca^++ and Mg^++, pH 7.2)). The resulting solutions, were transferred by polyethylene transfer pipettes to 15 mL polypropylene centrifuge tubes and centrifuged at 1200 g for 10 minutes at 4° C. One hundred μL of plasma was removed from each blood sample and added to 1 mL of methanol in new 15 mL polypropylene centrifuge tubes, vortexed, and stored overnight at −20° C. The next day, the samples were centrifuged at 2000 g for 10 minutes at 4° C. and the supernatants transferred to glass tubes and evaporated to dryness. The samples were assayed for thromboxane B2 using EIA kits supplied by Cayman Chemical Co. (Ann Arbor, Mich., Catalogue No. 519031) in duplicate wells after reconstitution with EIA Buffer and appropriate dilution (2000 fold for COX-1 and 500 fold for Cox-2 samples).
The % inhibition for COX-1 and COX-2 enzyme activity in human whole blood by the test compounds, at the indicated concentrations, are given in Table 1.

The next data set has as its target T2, Human COX-2 (Homo sapiens, UniProt P35354).
T2 construct: Human blood (≈50 mL) from male or female donors who had not received any aspirin or NSAIDs for 14 days was collected; endogenous in cells; host or cells: human whole blood from donors, heparinised, COX-2 induced with E. coli LPS
T2 sequence (P35354 18-604): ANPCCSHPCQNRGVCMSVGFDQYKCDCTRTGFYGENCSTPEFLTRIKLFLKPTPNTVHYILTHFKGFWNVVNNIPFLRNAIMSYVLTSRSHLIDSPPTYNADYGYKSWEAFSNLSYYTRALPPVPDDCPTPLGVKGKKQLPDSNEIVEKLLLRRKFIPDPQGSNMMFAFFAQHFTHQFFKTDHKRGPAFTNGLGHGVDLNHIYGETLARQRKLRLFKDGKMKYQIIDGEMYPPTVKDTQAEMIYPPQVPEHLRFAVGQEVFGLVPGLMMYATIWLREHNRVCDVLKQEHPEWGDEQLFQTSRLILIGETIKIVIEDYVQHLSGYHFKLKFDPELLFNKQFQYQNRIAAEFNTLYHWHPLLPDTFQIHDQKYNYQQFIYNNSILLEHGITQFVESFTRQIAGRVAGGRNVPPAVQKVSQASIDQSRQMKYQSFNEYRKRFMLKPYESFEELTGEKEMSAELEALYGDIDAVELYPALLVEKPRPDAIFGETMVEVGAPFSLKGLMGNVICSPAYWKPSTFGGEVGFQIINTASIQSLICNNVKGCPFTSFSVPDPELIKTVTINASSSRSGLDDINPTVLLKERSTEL
As to the kind of experiment: COX-2 enzyme activity in human whole blood (LPS-induced, thromboxane B2 EIA). The format is cell-based. As to conditions: for inhibition at 1 µM: 1 μM test compound; for inhibition at 10 µM: 10 μM test compound. The procedure: as §1, with “Human” for “The assay for COX-1 and COX-2 enzyme activity, in the human whole blood was performed as described in Brideau et al., Inflamm Res., 45: 68-74 (1996)). Human”
as §2, with “(Basal” for “To induce COX-2, lipopolysaccharide (LPS) from E. coli (LPS, serotype 026:B6 or serotype 0127:B8, Sigma Chemical Co., St. Louis, Mo., Catalogue No. L3755 or L3129, respectively) was added at 10 μg/mL (2 μL of 5 mg/mL LPS in DMSO) to appropriate wells 15 minutes after the addition of the test compound. (Basal”, “dryness.” for “dryness. The samples were assayed for thromboxane B2 using EIA kits supplied by Cayman Chemical Co. (Ann Arbor, Mich., Catalogue No. 519031) in duplicate wells after reconstitution with EIA Buffer and appropriate dilution (2000 fold for COX-1 and 500 fold for Cox-2 samples).”

Data set [1] concerns Rat Carrageenan Air-Pouch. As to the kind of experiment: Rat carrageenan air-pouch. Type of data set: in vivo. As to conditions: 45 μmol/kg by oral intubation 1 hour prior to carrageenan. The method, then:
The carrageenan air pouch model was performed as described by Sedgwick, A. D., et al., Agents Actions 18, 429-438, (1986) and Masferrer et al., Proc. Natl. Acad. Sci. 91, 3228-3232 (1994). Air pouches were produced by subcutaneous injection of 20 ml of sterile air on day (−6) into the intrascapular area of the back of the anesthesia rat (male CD, Charles River, 175-200 g). An additional 10 mL of sterile air was injected into the pouch 3 days later to keep the space open and to assist in the development of the interior membrane. Six days after the initial air injection, 1 mL of a 1% solution of carrageenan (Sigma, lambda fraction) dissolved in pyrogen-free saline was injected directly into the pouch to produce an inflammatory response. The test compound in vehicle (3 mL/rat, 0.5% Methocel) was administered by oral intubation 1 hour prior to carrageenan injection into the inflammatory pouch. After 4 hours the exudate was removed by pipette into a calibrated centrifuge tube and the volume measured. The number of leukocytes in the exudate was determined by cell counting with a Beckman Coulter Particle Counter with the lower threshold set to exclude red blood cells. The exudate samples were assayed without further processing for PGE2 (prostaglandin E2) using PGE2 EIA kit-Monoclonal, friom Cayman Chemical Co. (Ann Arbor, Mich., Catalogue No. 514010). […]

T1 sequence (P23219 24-599): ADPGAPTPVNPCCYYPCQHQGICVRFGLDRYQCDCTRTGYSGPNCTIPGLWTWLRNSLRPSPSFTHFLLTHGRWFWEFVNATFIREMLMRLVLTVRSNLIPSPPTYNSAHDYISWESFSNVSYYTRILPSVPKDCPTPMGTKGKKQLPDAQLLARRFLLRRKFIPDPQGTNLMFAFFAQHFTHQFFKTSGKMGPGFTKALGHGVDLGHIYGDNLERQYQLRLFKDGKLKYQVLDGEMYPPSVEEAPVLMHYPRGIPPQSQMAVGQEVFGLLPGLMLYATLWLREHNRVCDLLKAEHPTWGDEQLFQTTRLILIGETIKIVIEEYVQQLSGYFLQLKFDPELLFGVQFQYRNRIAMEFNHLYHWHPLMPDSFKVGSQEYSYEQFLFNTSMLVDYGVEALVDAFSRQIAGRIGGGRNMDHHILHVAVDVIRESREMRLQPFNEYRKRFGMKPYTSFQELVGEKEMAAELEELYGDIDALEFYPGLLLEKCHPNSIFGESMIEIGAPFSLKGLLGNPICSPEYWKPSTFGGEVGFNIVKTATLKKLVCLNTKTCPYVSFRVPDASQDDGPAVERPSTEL

As a reminder, the inhibition is the drop in the measured response relative to a control, in per cent. The low end stands for a weak effect, the high end for a strong effect. Take `CS(=O)(=O)c1ccc(-c2cc(COCCO[N+](=O)[O-])nn2CC2CCCCC2)cc1` [Example 2f, 4-(1-(Cyclohexylmethyl)-3-((2-(nitrooxy)ethoxy)methyl)pyrazol-5-yl)-1-(methylsulfonyl)benzene]: on Human COX-1, the inhibition at 100 µM is 70%. Besides, on Human COX-2, the inhibition at 1 µM is 20% and 10 µM produced 75% inhibition. Also, the “PGE-2 (% Inhibition at @ 45 μmol/kg)” value in data set [1] (exudate PGE2 after 4 hours) is on record as 85%. The “Cell Infiltration (% inhibition @ 45 μmol/kg)” value in data set [1] (exudate leukocytes after 4 hours) worked out at 42%.
What is called melting point is the temperature of the solid-liquid transition. In turn, `COC(=O)c1cc(-c2ccc(S(C)(=O)=O)cc2)n(Cc2ccccc2)n1` [Example 8, Methyl 5-(4-(methylsulfonyl)phenyl)-1-benzylpyrazole-3-carboxylate] gave a melting point of 142 to 143 °C. Further, the inhibition at 100 µM against Human COX-1 came out at 55%. At Human COX-2, this compound returned an inhibition at 1 µM of 15% and an inhibition at 10 µM of 25%.
Compound `CS(=O)(=O)c1ccc(-c2ncccc2C(=O)c2ccccn2)cc1` [Example 11b, 2-(4-(Methylsulfonyl)phenyl)(3-pyridyl) 2-pyridyl Ketone] returned a melting point of 143 to 147 °C. This compound returned an inhibition at 100 µM against Human COX-1 of 0%. At Human COX-2, this compound showed an inhibition at 1 µM of 0% and an inhibition at 10 µM of 15%.
The compound `CCOC(=O)c1cccc(C(=O)c2cccnc2-c2ccc(S(C)(=O)=O)cc2)c1` [Example 12b, Ethyl 3-((2-(4-(methylsulfonyl)phenyl)-3-pyridyl)carbonyl)benzoate] showed a melting point of 125 to 132 °C. On Human COX-1, this compound displayed an inhibition at 100 µM of 25%. At Human COX-2, this compound returned an inhibition at 1 µM of 10% and an inhibition at 10 µM of 20%.
